Biological target: T1, Ba/F3 cell EGFR Exon20 ins NPH (Homo sapiens, UniProt P00533, INS773NPH)
T1 construct: expressed in transfected cells; host or cells: Ba/F3
Experiment: Ba/F3 cell proliferation suppression, EGFR Exon20 ins NPH
Format: cell-based
Conditions: GI50 class; Ba/F3 cell line with NPH inserted at Exon20 of EGFR; 72 hours
Procedure, shortened: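 Seed 3000–5000 cells/well; after 24 h add compound (12 conc., 0.3 nM–50 um final); incubate 72 h; add CellTiter-Glo, 10 min room temperature; read luminescence; GI50 from % growth vs control, triplicate.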

Ba/F3 (NPH) Activity	Structure (SMILES)
A (GI50 < 50 nM)	C=CC(=O)Nc1cc(Nc2cc(N3OCC[C@@H]3c3ccc(Cl)c(F)c3)ncn2)c(OC)cc1N1CCC(N2C[C@@H](C)O[C@@H](C)C2)CC1 [compound 709, N-(5-((6-((R)-3-(4-chloro-3-fluorophenyl)isoxazolidine-2-yl)pyrimidine-4-yl)amino)-2-(4-((2S,6R)-2,6-dimethylmorpholino)piperidine-1-yl)-4-methoxyphenyl) acrylamide]
A (GI50 < 50 nM)	C=CC(=O)Nc1cc(Nc2cc(N3OCC[C@@H]3c3cc(F)cc(Cl)c3)ncn2)c(OC)cc1N1CCC(N2C[C@H]3C[C@@H]2CO3)CC1 [compound 590, N-(2-(4-((1R,4R)-2-oxa-5-azabicyclo[2.2.1]heptane-5-yl)piperidine-1-yl)-5-((6-((R)-3-(3-chloro-5-fluorophenyl)isoxazolidine-2-yl)pyrimidine-4-yl)amino)-4-methoxyphenyl) acrylamide]
B (50 nM ≤ GI50 < 500 nM)	C=CC(=O)Nc1cc(Nc2cc(N3OCC[C@@H]3c3ccc(Cl)c(Cl)c3)ncn2)c(OC)cc1N1CCC(N2CCN(C3CC3)CC2)CC1 [compound 932, N-(2-(4-(4-cyclopropylpiperazine-1-yl)piperidine-1-yl)-5-((6-((R)-3-(3,4-dichlorophenyl)isoxazolidine-2-yl)pyrimidine-4-yl)amino)-4-methoxyphenyl) acrylamide]
B (50 nM ≤ GI50 < 500 nM)	C=CC(=O)Nc1cc(Nc2cc(N3OCC[C@@H]3c3ccc(F)c(F)c3F)ncn2)c(OC)cc1N1CCC(N2CCC(N(C)C)CC2)CC1 [compound 656, N-(2-(4-(dimethylamino)-[1,4'-bipiperidine]-1'-yl)-4-methoxy-5-((6-((R)-3-(2,3,4-trifluorophenyl)isoxazolidine-2-yl)pyrimidine-4-yl)amino)phenyl)acrylamide]
A (GI50 < 50 nM)	C=CC(=O)Nc1cc(Nc2cc(N3OCC[C@@H]3Cc3cccc(F)c3)ncn2)c(OC)cc1N1CCN(C)CC1 [compound 991, N-(5-((6-((S)-3-(3-fluorobenzyl)isoxazolidine-2-yl)pyrimidine-4-yl)amino)-4-methoxy-2-(4-methylpiperazine-1-yl)phenyl)acrylamide]
A (GI50 < 50 nM)	C=CC(=O)Nc1cc(Nc2cc(N3OCC[C@@H]3c3ccc(Cl)cc3)ncn2)c(OC)cc1N1CCN(CC)CC1 [Example 255, N-(5-((6-((R)-3-(4-chlorophenyl)isoxazolidine-2-yl)pyrimidine-4-yl)amino)-2-(4-ethylpiperazine-1-yl)-4-methoxyphenyl) acrylamide]
B (50 nM ≤ GI50 < 500 nM)	C=CC(=O)Nc1cc(Nc2cc(N3OCC[C@@H]3c3cc(F)cc(Cl)c3)ncn2)c(OC)cc1N1CC(N2CCN(C3CC3)CC2)C1 [compound 587, N-(5-((6-((R)-3-(3-chloro-5-fluorophenyl)isoxazolidine-2-yl)pyrimidine-4-yl)amino)-2-(3-(4-cyclopropylpiperazine-1-yl)azetidine-1-yl)-4-methoxyphenyl) acrylamide]
A (GI50 < 50 nM)	C=CC(=O)Nc1cc(Nc2cc(N3OCC[C@@H]3c3cc(F)cc(F)c3)ncn2)c(OC)cc1N1CCC(N2C[C@@H](C)N(C3CC3)C[C@@H]2C)CC1 [Example 108, N-(2-(4-((2S,5R)-4-cyclopropyl-2,5-dimethylpiperazine-1-yl)piperidine-1-yl)-5-((6-((R)-3-(3,5-difluorophenyl)isoxazolidine-2-yl)pyrimidine-4-yl)amino)-4-methoxyphenyl) acrylamide]
A (GI50 < 50 nM)	C=CC(=O)Nc1cc(Nc2cc(N3OCC[C@@H]3c3cccc(C(F)(F)F)c3)ncn2)c(OC)cc1N1CCN(CC)CC1 [compound 452, N-(2-(4-ethylpiperazine-1-yl)-4-methoxy-5-((6-((R)-3-(3-(trifluoromethyl)phenyl)isoxazolidine-2-yl)pyrimidine-4-yl)amino)phenyl) acrylamide]

From patent US12157730B2, “Heteroaryl derivative, method for producing same, and pharmaceutical composition comprising same as effective component” (VORONOI INC., priority 2019, dated 2024)
